Entries after “also recorded” stand apart in the source; their conditions may differ.
How the values were obtained:
Rat brain slices = test: Rat brain slice ischemia/reoxygenation EPSP system; assay type: cell-based; conditions: 50 μM C7
Experimental: A widely used assay to determine the therapeutic potential of molecules in brain ischemia (stroke) consists of evaluating their ability to prevent irreversible damage induced by an anoxic episode in brain slices maintained under physiological conditions. Rat brain slices were maintained at 35° C. in an interface chamber in an artificial cerebrospinal fluid containing: 124 mM NaCl, 3 mM KCl, 1.25 mM KH2PO4, 3 mM CaCl, 1 mM MgCl2, 26 mM NaHCO3, 10 mM D-glucose, and 2 mM L-ascorbate, continuously gassed with a mixture of O2:CO2 (95:5). The atmosphere of the chamber was also continuously gased with the mixture of O2:CO2 (95:5), except during the-anoxic episode when it was replaced by N2. Axons were electrically stimulated and the evoked excitatory post-synaptic potentials (EPSPs) were recorded using microelectrodes.
The extent of permanent damage can be quantified by measuring both the amplitude (in mV) and the initial slope (in mV/msec) of the EPSP.
After 5 minutes of baseline recording, O2 was replaced by N2 for an average of 5 minutes. O2 was then reintroduced and recording was continued for another 50 minutes. […] In contrast, recovery in untreated brain slices was only about 40% of pre-ischemia levels.
As an additional assessment of efficacy, the percentage of viable slices following repeated ischemic episodes was evaluated. […]

[1] = SOD activity, inhibition of cytochrome C reduction by xanthine plus xanthine oxidase (Example 1); assay type: biochemical
Experimental: The SOD activity of the compounds was determined by evaluating the inhibition of the reduction of cytochrome C produced by the oxygen free radical generating system, xanthine plus xanthine oxidase. Cytochrome C reduction is monitored spectrophotometrically at 550 nm according to the method described in Darr et al. (1987) Arch. Biochem. Biophys. 258: 351, incorporated herein by reference. The concentration of xanthine oxidase is adjusted such that it produces a rate of reduction of cytochrome C at 550 nm of 0.025 absorbance unit per minute. Under these conditions, the amount of SOD activity required to inhibit the rate of cytochrome C reduction by 50 percent (i.e., to a rate of 0.0125 absorbance unit per minute) is defined as one unit of activity. Salen-metal complexes are identified as antioxidants if they have at least 0.1 unit of activity at a concentration of 1 mM under these standard assay conditions.

[2] = system: Rat hippocampal slices in culture; test: Beta-amyloid peptide-induced cytotoxicity in hippocampal slice cultures; assay type: cell-based; conditions: C7 25 μM
Experimental: Rat hippocampal slices in culture were incubated with the beta-amyloid peptide (1-42) at the indicated concentrations. Cell viability was assessed by two criteria: release of lactate dehydrogenase (L*H) into the culture medium and staining with propidium […] iodide (PI) which binds to exposed DNA.
Rat hippocampal slice cultures were incubated with the beta-amyloid peptide (1-42) at the indicated concentrations. Cell viability was assessed by two criteria: release of lactate dehydrogenase (L*H) into the culture medium and staining with propidium iod*de (PI) which binds to exposed DNA.

Rats = test: Ischemia-reperfusion induced kidney damage in the rat; assay type: in vivo; conditions: 0.2 mg/kg single intravenous bolus at beginning of reperfusion
Experimental: Rats (“Untreated” and “C40” groups) were unilaterally nephrectomized. The remaining renal artery was clamped for 75 min then reperfused. Kidney function was assessed by determining creatinine levels in the blood. Where indicated, rats received C40 as a single intravenous bolus injection (0.2 mg/kg) at the beginning of the reperfusion period. Bilaterally nephrectomized rats, showing maximal creatinine levels in the absence of kidney function, died on day 2.

## [Cl][Mn]1[O]c2ccccc2C=NCCN=Cc2ccccc2[O]1 [Compound C7]
Rat brain slices
  percentage of viable slices following repeated ischemic episodes: 70%
[1]; Example 1, cytochrome C reduction
  SOD Activity: 575 units/mM
[1]; previously found
  SOD Activity: about 769 units/mM
[2]
  protection from beta-amyloid peptide-induced cytotoxicity: protect neurons; also recorded: protects neuronal tissue

## COc1cccc2c1[O][Mn]([Cl])[O]c1c(cccc1OC)C=NCCN=C2 [Compound C40]
Rats
  kidney damage, creatinine levels in the blood: protects against ischemia-reperfusion induced kidney damage
